{"source": "patent US9994862B2", "about": "“Rice resistant to HPPD and ACCase inhibiting herbicides” (priority 2011, dated 2018)", "key": {"[1]": {"tested_on": "HPPD tolerant line ML0831266-03093", "assay": "ACCase herbicide field trial", "type": "in vivo, rice", "settings": "for resistance to ACCase inhibiting herbicides compared with line P1003: 0.5x to 4x of label rate (fluazifop 210 gmai/ha, quizalofop 77 gmai/ha)", "procedure": "(§1) FIG. 3A-3B is a photograph of line ML0831266-03093 that in addition to resistance to HPPD herbicides also has enhanced resistance to ACCase herbicides. […] Picture taken four weeks after herbicide application.\n(§2) During the process of showing equivalent resistance of the ACCase tolerance in the new line PL1214418M2-73009, the HPPD tolerant line ML0831266-03093 was also evaluated for response to ACCase tolerance by application of the ACCase herbicides fluazifop at 0.5×, 1×, 2×, and 4× multiples of the label application rate (210 gmai/ha) and quizalofop at 0.5×, 1×, 2×, and 4× multiples of the label application rate (77 gmai/ha). In the field trials the resistant HPPD line ML0831266-03093 was planted in a row adjacent to the parent line P1003. […] By combining the HPPD tolerance with the ACCase tolerance the newly developed line PL1214418M2-73009, or any other new line and other derived lines because resistance is heritable and can be bred into lines e.g. progeny may carry a higher tolerance to ACCase inhibiting herbicides than lines developed from only the ACCase inhibitor resistant line ML0831265-01493."}, "line P1003": {"tested_on": "line P1003", "assay": "ACCase herbicide field trial", "type": "in vivo, rice", "settings": "four weeks after application", "procedure": "as §1, §2"}, "line PL1214418M2-73009": {"tested_on": "line PL1214418M2-73009", "assay": "ACCase herbicide field trial", "type": "in vivo, rice", "settings": "for tolerance to ACCase herbicide compared with donor line ML0831265-01493: 0.5x to 4x of label rate (fluazifop 210 gmai/ha, quizalofop 77 gmai/ha)", "procedure": "FIG. 2 is a graphical representation of a trait tolerance trial; the trial rice were planted, quizalofop was applied at the indicated rates about 5 weeks later (initiating tillering); the rice was evaluated for the percent of injury or damage as compared to unsprayed rice four weeks after herbicide application; line ML0831265-01493 is the ACCase resistant line and R0146 and P1003 are control lines; the line PL1214418M2-73009 was selected out of a cross between the HPPD tolerant line ML0831266-03093 (parent is P1003) and the ACCase tolerant line ML0831265-01493 (parent is R0146).\n(§3) Another trial was conducted to confirm recovery of the ACCase inhibitor resistance from the G2096S mutation as in the line ML0831265-01493. In this trial the new line PL1214418-73009 with combined HPPD and ACCase tolerance was planted in a row along with other various lines including the original donor line ML0831265-01493 (planted in a plot), ML0831266-03093, P1003, R0146 parent line for ACCase tolerance. The lines were all tested with the ACCase herbicides fluazifop at 0.5×, 1×, 2×, and 4× multiples of the label application rate (210 gmai/ha) and quizalofop at 0.5×, 1×, 2×, and 4× multiples of the label application rate (77 gmai/ha)."}, "[2]": {"tested_on": "common grass weeds, such as barnyard grass", "assay": "Grass weed control by ACCase herbicides in rice", "type": "in vivo", "settings": "for control of common grass weeds in rice: in vivo", "excerpt": "(§4) FIG. 5 illustrates grass weed control by the ACCase inhibitor quizalofop; control is shown by the prevalent grass weed (dead plants) being killed by quizalofop (77 gm ai/ha) while the resistant line ML0831265-01493 (live plants) were not injured.\nRice is tolerant to certain ACCase inhibitor herbicides, for example cyhalofop is registered for use in rice. However other ACCase herbicides kill or severely injure rice to varying degrees. […] The applied rates of both types of herbicides giving the weed control are well within the tolerance level of the respective ACCase and HPPD tolerant lines including the combined lines carrying tolerance to both HPPD and ACCase herbicides."}, "line PL1214418M2-80048": {"tested_on": "line PL1214418M2-80048", "assay": "Herbicide tolerance of the combined HPPD and ACCase line", "set-up": "species or system rice", "settings": "in vivo", "excerpt": "An early maturing group of plants was harvested as early as possible and the seeds planted in the greenhouse to help quickly advance to the F4 generation. Selections on the F3 plants were made by molecular markers flanking the HPPD tolerance mutation and native tolerance the ACCase functional mutation. Homozygous plants for all the selected genomic regions were advanced to the F5 generation. The F5 seed was confirmed to carry tolerance to ACCase herbicides and the HPPD herbicide mesotrione. Among the F5 lines PL1214418M2-80048 was selected due to a high seed yield and being homozygous for the ACCase tolerance mutation at position G2096S, the HPPD tolerance mutation, and the HPPD tolerance native gene. Seed from the line PL1214418M2-80048 was deposited at the ATCC and given a deposit number PTA-121362 (see Table 8).\nIndividuals with tolerance to both mesotrione and ACCase herbicides were selfed to produce F3 families and further selected for other important agronomic characters. The F3 lines were selfed and purified to derive a new line or variety with dual resistance to mesotrione and ACCase herbicides. Such lines are highly valuable as the use of both herbicides provides more complete and broad-spectrum weed control. […]"}, "line ML0831265-02283": {"tested_on": "line ML0831265-02283", "assay": "ACCase herbicide field trial", "type": "in vivo, rice", "excerpt": "After screening a large mutant population, the line ML0831265-02283 also survived application of the ACCase herbicide quizalofop. The line was increased to obtain sufficient seed for larger trials to evaluate its tolerance to ACCase herbicides. The tolerance to ACCase herbicides in line ML0831265-02283 was validated by planting in the field plots (5 feet by 10 feet) of the line, the non-mutant parent line R0146, a second non-mutant line P1003, and the ACCase tolerant line ML0831265-01493. The ACCase herbicide quizalofop was applied at the four leaf stage at 0.5×, 1×, 2×, and 4× multiples of the labeled rate (77 gmai/ha). Twenty one days after the herbicide was applied the plots were evaluated for percent injury caused to the rice based on control plots that had no herbicide application (FIG. 8). The data confirms the tolerance of line ML0831265-02283 and it may even carry more tolerance than line ML0831265-01493 as shown by less injury at the 2× and 4× rates of quizalofop."}, "[3]": {"tested_on": "ACCase resistant line ML0831265-01493", "assay": "ACCase herbicide field trial", "type": "in vivo, rice", "settings": "quizalofop 77 gm ai/ha", "procedure": "as §4, §3\nAfter screening a large mutant population, the line ML0831265-02283 also survived application of the ACCase herbicide quizalofop. The line was increased to obtain sufficient seed for larger trials to evaluate its tolerance to ACCase herbicides. […] Twenty one days after the herbicide was applied the plots were evaluated for percent injury caused to the rice based on control plots that had no herbicide application (FIG. 8). […]"}}, "note": "“Also recorded” adds a separate entry of the source.", "data": [{"compound": "CC(Oc1ccc(Oc2ccc(C(F)(F)F)cn2)cc1)C(=O)O", "note": "(stereo not drawn) [fluazifop]", "values": [{"measurement": "resistance to ACCase inhibiting herbicides compared with line P1003", "setting": "[1]", "result": "more resistance"}, {"measurement": "killing of rice plants", "setting": "line P1003; fluazifop alone 210 gmai/ha at initiation of tillering", "result": "no killing of the rice plants was observed"}, {"measurement": "tolerance to ACCase herbicide compared with donor line ML0831265-01493", "setting": "line PL1214418M2-73009", "result": "equivalent tolerance"}, {"measurement": "tolerance to fluazifop", "setting": "line PL1214418M2-73009; in vivo", "result": "tolerance"}, {"measurement": "control of common grass weeds in rice", "setting": "[2]", "result": "good control"}, {"measurement": "tolerance to the herbicide", "setting": "line PL1214418M2-80048", "result": "tolerance"}]}, {"compound": "CC(Oc1ccc(Oc2cnc3cc(Cl)ccc3n2)cc1)C(=O)O", "note": "(stereo not drawn) [quizalofop]", "values": [{"measurement": "resistance to ACCase inhibiting herbicides compared with line P1003", "setting": "[1]", "result": "more resistance"}, {"measurement": "survival after quizalofop", "setting": "[1]; 77 gm ai/ha, four weeks after application", "result": "surviving"}, {"measurement": "survival after quizalofop", "setting": "line P1003; 77 gm ai/ha", "result": "does not survive"}, {"measurement": "injury compared with line ML0831265-01493", "setting": "line ML0831265-02283; 2x and 4x of the labeled rate 77 gmai/ha, four leaf stage, 21 days after application", "result": "less injury"}, {"measurement": "survival in the screening of the mutant population", "setting": "line ML0831265-02283; in vivo", "result": "survived"}, {"measurement": "tolerance to ACCase herbicide compared with donor line ML0831265-01493", "setting": "line PL1214418M2-73009", "result": "equivalent or better; also recorded: equivalent tolerance"}, {"measurement": "control of common grass weeds in rice", "setting": "[2]", "result": "good control"}, {"measurement": "grass weed control", "setting": "[2]; quizalofop 77 gm ai/ha, prevalent grass weed", "result": "killed"}, {"measurement": "injury of the rice", "setting": "[3]", "result": "not injured"}]}]}
